Patent publication US8088918B2, “Noncardiotoxic pharmaceutical compounds” (Williamsburg Holdings LLC, priority 2004, dated 2012)

Experiments:
[1] = Stability testing of prodrugs in human plasma; type: in vitro ADME; conditions: 10 μM, ca. 37° C.
Description: (§1) Pooled human plasma was obtained from Bioreclamation (East Meadow, N.Y.) by collection into sodium EDTA as the anticoagulant, and was stored at ca −20° C. prior to use. Prior to use, the plasma defrosted and was spun at ca. 3000 rpm for 5 minutes to remove any precipitate. The pH of the plasma was adjusted to pH 7.4 by careful addition of NaH2PO4 buffer.
(§2) Plasma stability was assessed by incubation of 10 μM of each compound prepared in Examples 1-5 with human plasma, in duplicate, at ca. 37° C. with shaking. Each compound prepared in Examples 1-5 was also incubated at 10 μM in PBS as a control for compound heat stability. Aliquots were removed at 0, 0.5, 1 and 2 hours and stored at −20° C. until analysis.
(§3) For analysis, plasma samples were extracted in 1 part acetonitrile and isolation of the supernatant. Analysis of each compound prepared in Examples 1-5 in plasma extracts was conducted by an LC-MS method at each time interval and quantification was achieved by comparison of the response due to the sample to that of a three point standard curve. Appearance of the parent drug the hydroxymetabolites were also monitored at each time interval. The % degradation following incubation at each time point was calculated by comparison of the parent concentration to that at 0 minutes.

[2] = Stability testing in simulated gastric fluids; conditions: 10 μM, saline pH approximately 1 plus pepsin
[3] = Stability testing of prodrugs in rat plasma (elevated esterase activity); type: in vitro ADME, Sprague-Dawley rat; conditions: 10 μM, ca. 37° C.
Description: as §1, with “Sprague-Dawley rat” for “Pooled human”, “obtained” for “obtained from Bioreclamation (East Meadow, N.Y.)”
as §2, with “rat” for “human”
as §3, with “drug and” for “drug”

recombinant human CYP3A4 = target: T1, recombinant human CYP3A4 (Homo sapiens, UniProt P08684); assay: Metabolic stability in the presence of CYP3A4 isozyme; type: in vitro ADME; conditions: 10 μm compound
T1 construct: purchased BD Gentest (Woburn, Mass.)
T1 sequence (P08684 whole entry): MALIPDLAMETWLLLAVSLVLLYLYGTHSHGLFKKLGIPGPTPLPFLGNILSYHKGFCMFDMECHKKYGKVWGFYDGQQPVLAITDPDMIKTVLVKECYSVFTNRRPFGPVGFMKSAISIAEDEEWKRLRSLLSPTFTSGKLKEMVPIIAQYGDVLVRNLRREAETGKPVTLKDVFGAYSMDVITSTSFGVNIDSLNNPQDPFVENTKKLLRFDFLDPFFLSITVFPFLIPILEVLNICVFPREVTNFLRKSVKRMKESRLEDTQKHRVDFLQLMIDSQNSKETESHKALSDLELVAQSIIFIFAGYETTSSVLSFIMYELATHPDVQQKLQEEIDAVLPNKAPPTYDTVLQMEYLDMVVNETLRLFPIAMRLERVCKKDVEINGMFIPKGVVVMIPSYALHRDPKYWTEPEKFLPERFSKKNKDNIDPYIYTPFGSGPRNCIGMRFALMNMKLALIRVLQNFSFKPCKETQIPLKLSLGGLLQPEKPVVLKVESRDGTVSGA
Description: (§4) The metabolic stability of each compound prepared in Examples 1-5 was assessed in the presence of CYP2D6 and CYP3A4 obtained from BD Gentest (Woburn, Mass.).
(§5) The metabolic stability of each compound prepared in Examples 1-5 was assessed in duplicate by incubation of 10 μm compound with recombinant human CYP2D6 and 3A4 using similar conditions to those in Example 9. Samples were removed for analysis at 0, 30 and 60 minutes and extracted with one volume of organic solvent. Appropriate controls were included. Quantification of the disappearance of the prodrug was conducted LC-MS. Appearance of metabolites was also monitored.

[4] = Metabolic stability, microsomal incubations without inhibitor; type: in vitro ADME; conditions: 10 μM, 0.5 mg/mL microsomal protein
Description: (§6) The metabolic stability of each compound prepared in Examples 1-5 was assessed in microsomal preparations obtained from BD Gentest (Woburn, Mass.).
(§7) The metabolic stability of each compound prepared in Examples 1-5 was assessed in duplicate by incubation of 10 μM compound with 0.5 mg/mL microsomal protein, 1 mM in 0.1 M phosphate buffer, pH 7.4 in the presence and absence of a CYP3A4 inhibitor (ketoconazole). The reaction mixture was pre-incubated, in the absence of the microsomes, at ca. 37° C. for 5 minutes, followed by initiation of the incubation by the addition of microsomal protein and maintained at ca. 37° C. for a further 0, 30 and 60 minutes. After the appropriate incubation time, the mixtures were quenched by the addition of one volume of acetonitrile and the supernatant was isolated by centrifugation. Positive control incubations (7-ethoxycoumarin) were performed in the same manner as the compounds from Examples 1-5 and quenched after 0 and 30 minutes. In addition, negative control incubations were performed for 60 minutes in the absence of NADPH to assess chemical stability.
(§8) Analysis of supernatants from each time interval was conducted for each compound prepared in Examples 1-5 by LC-MS analysis. Quantification of the disappearance on the parent drug was achieved by comparison of the sample response to that of a suitable standard curve constructed in 0.1 M phosphate buffer, pH 7.4. The standard curve ranged between ≦1% up to ≧100% of the dosing concentration.
(§9) The % turnover following 60 minutes of incubation was calculated by comparison of the parent concentration to that at 0 minutes. The % degradation was calculated in the same manner from the negative control incubations. Appearance of the parent drug and the hydroxymetabolites were also monitored at each time interval.

CYP2D6 = CYP2D6 (Homo sapiens, UniProt P10635); assay: Metabolic stability in the presence of CYP2D6 isozyme; type: in vitro ADME; design: purchased BD Gentest (Woburn, Mass.); conditions: 10 μm compound
Sequence of CYP2D6 (P10635 whole entry): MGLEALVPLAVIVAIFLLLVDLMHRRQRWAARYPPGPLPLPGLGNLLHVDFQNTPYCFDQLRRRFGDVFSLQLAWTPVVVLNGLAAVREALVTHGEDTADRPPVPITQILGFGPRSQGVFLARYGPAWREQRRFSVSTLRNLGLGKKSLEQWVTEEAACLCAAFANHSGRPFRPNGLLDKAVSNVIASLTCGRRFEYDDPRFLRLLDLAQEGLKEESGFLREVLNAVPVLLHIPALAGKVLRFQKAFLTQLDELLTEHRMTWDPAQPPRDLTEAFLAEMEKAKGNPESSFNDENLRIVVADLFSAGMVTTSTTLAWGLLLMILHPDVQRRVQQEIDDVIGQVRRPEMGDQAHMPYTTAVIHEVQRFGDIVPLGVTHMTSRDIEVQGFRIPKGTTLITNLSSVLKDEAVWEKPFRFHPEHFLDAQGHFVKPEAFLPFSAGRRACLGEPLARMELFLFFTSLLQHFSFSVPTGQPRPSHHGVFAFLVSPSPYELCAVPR
Description: as §4, §5

[5] = Metabolic stability, microsomal incubations with ketoconazole (CYP3A4 inhibitor); type: in vitro ADME; conditions: 10 μM, 0.5 mg/mL microsomal protein
Description: as §6, §7, §8, §9

[6] = Stability testing in simulated intestinal fluids; conditions: 10 μM
[7] = parent drugs; cited from earlier work

With CCCCCCCCOC(=O)N(C)CCCN1c2ccccc2CCc2ccccc21 [RIC-5d, [3-(10,11-Dihydro-dibenzo[b,f]azepin-5-yl)-propyl]-methyl-carbamic acid octyl ester] the “Loss of parent compound in human plasma (%)” value (“Loss … in human plasma (%)” below) ([1]; incubation time 0 min) was 0.00%, the “Loss … in human plasma (%)” value ([1]; incubation time 30 min) was −32.74% and the “Loss … in human plasma (%)” value ([1]; incubation time 60 min) was −1.44%. The “Loss … in human plasma (%)” value ([1]; incubation time 120 min) was 49.54%, the “Loss of parent compound in simulated gastric fluid (%)” value ([2]; incubation time 0 min) was 0.00% and the “Loss of parent compound in simulated gastric fluid (%)” value ([2]; incubation time 30 min) was 13.84%. For the same molecule, the “Loss of parent compound in rat plasma (%)” value (from here on “Loss … in rat plasma (%)”) ([3]; incubation time 0 min) was 0.00%, the “Loss … in rat plasma (%)” value ([3]; incubation time 30 min) was −8.16% and the “Loss … in rat plasma (%)” value ([3]; incubation time 60 min) was 41.70%. For the same molecule, the “Loss … in rat plasma (%)” value ([3]; incubation time 120 min) was 73.48%, the “Loss of parent compound with CYP3A4 isozyme (%)” value (“Loss … with CYP3A4 isozyme (%)” for short) (recombinant human CYP3A4; incubation time 0 min) was 0.00% and the “Loss … with CYP3A4 isozyme (%)” value (recombinant human CYP3A4; incubation time 30 min) was 33.66%. For the same molecule, the “Loss … with CYP3A4 isozyme (%)” value (recombinant human CYP3A4; incubation time 60 min) was 60.64%, the “Loss of parent compound with no ketoconazole (%)” value ([4]; incubation time 30 min) was 59.12% and the “Loss of parent compound with no ketoconazole (%)” value ([4]; incubation time 60 min) was 74.17%. For the same molecule, the “Loss of parent compound with CYP2D6 isozyme (%)” value (CYP2D6; incubation time 0 min) was 0.00%, the “Loss of parent compound with CYP2D6 isozyme (%)” value (CYP2D6; incubation time 30 min) was 18.68% and the “Loss of parent compound with ketoconazole (%)” value ([5]; incubation time 30 min) was 15.18%. For the same molecule, the “Loss of parent compound with ketoconazole (%)” value ([5]; incubation time 60 min) was 55.88%, the “Loss of parent compound in simulated intestinal fluid (%)” value ([6]; phosphate pH 6, incubation time 0 min) was 0.00% and the “Loss of parent compound in simulated intestinal fluid (%)” value ([6]; phosphate pH 6, incubation time 30 min) was 7.73%. For the same molecule, the “Loss of parent compound in simulated intestinal fluid (%)” value ([6]; phosphate pH 6, incubation time 60 min) was −8.72% and the “Loss of parent compound in simulated intestinal fluid (%)” value ([6]; phosphate pH 6, incubation time 120 min) was 4.23%.
In the case of CN(C)CCCN1c2ccccc2CCc2ccc(Cl)cc21 [clomipramine], the pKa [7] is listed as 9.50.
For CNCCC(Oc1ccccc1C)c1ccccc1 (stereo not drawn) [atomoxetine, Atomoxetine], the pKa [7] is given as 10.12.
In the case of CN(C)CCc1c[nH]c2ccc(Cn3cncn3)cc12 [rizatriptan], the pKa [7] is listed as 9.49.
In the case of COc1cc(N)c(Cl)cc1C(=O)NC1CCN(CCCOc2ccc(F)cc2)CC1OC (stereo not drawn) [cisapride, Cisapride], the pKa [7] is listed as 7.04.
For CN(C)CCC=C1c2ccccc2COc2ccccc21 (mixture of isomers) [doxepin, Doxepin], the pKa [7] is given as 8.00.
In the case of CC(C)(C)c1ccc(C(O)CCCN2CCC(C(O)(c3ccccc3)c3ccccc3)CC2)cc1 (stereo not drawn) [terfenadine, Terfenadine], the pKa [7] is given as 9.60.
In the case of CN(C)CCC=C1c2ccccc2C=Cc2ccccc21 [cyclobenzaprine, Cyclobenzaprine], the pKa [7] is listed as 9.21.
For O=C1Cc2cc(CCN3CCN(c4nsc5ccccc45)CC3)c(Cl)cc2N1 [ziprasidone], the pKa [7] is given as 8.24.
For O=C1NCCN1CCN1CCC(c2cn(-c3ccc(F)cc3)c3ccc(Cl)cc23)CC1 [sertindole, Sertindole], the pKa [7] is given as 9.06.
In the case of CN(C)CCOC(C)(c1ccccc1)c1ccc(Cl)cc1 (stereo not drawn) [chlorphenoxamine, Chlorphenoxamine], the pKa [7] is listed as 8.21.
For CN1CCN(C2=Nc3cc(Cl)ccc3Nc3ccccc32)CC1 [clozapine, Clozapine], the pKa [7] is listed as 8.20.
For CCc1nn(CCCN2CCN(c3cccc(Cl)c3)CC2)c(=O)n1CCOc1ccccc1 [nefazodone], the pKa [7] is given as 7.90.
In the case of CN1CCC[C@@H]1Cc1c[nH]c2ccc(CCS(=O)(=O)c3ccccc3)cc12 [eletriptan, Eletriptan], the pKa [7] is given as 10.13.
In the case of CN(C)CCc1c[nH]c2ccc(C[C@H]3COC(=O)N3)cc12 [Zolmitriptan], the pKa [7] is listed as 9.52.
For CC(N)C12CC3CC(CC(C3)C1)C2 (stereo not drawn) [rimantadine], the pKa [7] is listed as 11.70.
For Cc1cccc(CN2CCN(C(c3ccccc3)c3ccc(Cl)cc3)CC2)c1 (stereo not drawn) [meclizine], the pKa [7] is listed as 7.32.
In the case of CN[C@@H]1CCc2[nH]c3ccc(C(N)=O)cc3c2C1 [frovatriptan, Frovatriptan], the pKa [7] is given as 10.63.
In the case of COc1cc(N)c(Cl)cc1C(=O)NC1CCNCC1OC (stereo not drawn) [norcisapride], the pKa [7] is listed as 8.46.
For CC1COc2c(N3CCN(C)CC3)c(F)cc3c(=O)c(C(=O)O)cn1c23 (stereo not drawn) [ofloxacin], the pKa [7] is given as 7.09.
For Fc1ccc(-n2cc(C3CCNCC3)c3cc(Cl)ccc32)cc1 [norsertindole], the pKa [7] is listed as 10.61.
For CN1CCN(C(c2ccccc2)c2ccccc2)CC1 [cyclizine], the pKa [7] is given as 8.35.
For CNCCCC12CCC(c3ccccc31)c1ccccc12 [maprotiline], the pKa [7] is given as 10.20.
For CN(C)CCC[C@@]1(c2ccc(F)cc2)OCc2cc(C#N)ccc21 [escitalopram, Escitalopram], the pKa [7] is given as 9.60.
For COc1ccc(OCC2CN(C)CCC2c2ccccc2)cc1 (stereo not drawn) [femoxetine, Femoxetine], the pKa [7] is listed as 9.00.
In the case of COc1c(N2C[C@@H]3CCCN[C@@H]3C2)c(F)cc2c(=O)c(C(=O)O)cn(C3CC3)c12 [moxifloxacin], the pKa [7] is listed as 10.01.
In the case of O=C1NC(=O)C(c2ccccc2)(c2ccccc2)N1 [phenytoin], the pKa [7] is given as 8.31.
For CN1CCC[C@@H]1CCO[C@](C)(c1ccccc1)c1ccc(Cl)cc1 [clemastine], the pKa [7] is given as 10.23.
For CN1CCN(CCCN2c3ccccc3Sc3ccc(C(F)(F)F)cc32)CC1 [trifluoperazine], the pKa [7] is listed as 7.98.
